{
  "source": "patent US9174995B2",
  "about": "“Pyrrolotriazinone derivatives” (Merck Patent GmbH, priority 2012, dated 2015)",
  "key": {"[1]": {"test_system": "Tankyrases", "experiment": "Cellular inhibition of Tankyrase: increase of Axin2 level in DLD1 cells (Luminex)", "format": "cell-based", "settings": "24 hours, read-out: EC50 tankyrase ½ (cell assay)", "experimental": "Measurement of Cellular Inhibition of Tankyrase\nSince Tankyrases have been described to modulate cellular level of Axin2 (Huang et al., 2009; Nature) the increase of Axin2 level is used as readout for determination of cellular inhibition of Tankyrases in a Luminex based assay.\nCells of the colon carcinoma cell line DLD1 are plated in 96 well plates with 1.5×10^4 cells per well. Next day, cells are treated with a serial dilution of test compound in seven steps as triplicates with a final DMSO concentration of 0.3%. After 24 hours, cells are lysed in lysis buffer (20 mM Tris/HCl pH 8.0, 150 mM NaCl, 1% NP40, 10% Glycerol) and lysates are cleared by centrifugation through a 96 well filter plate (0.65 μm). Axin2 protein is isolated from cell lysates by incubation with a monoclonal anti-Axin2 antibody (R&D Systems #MAB6078) that is bound to fluorescent carboxybeads. Then, bound Axin2 is specifically detected with a polyclonal anti-Axin2 antibody (Cell Signaling #2151) and an appropriate PE-fluorescent secondary antibody. The amount of isolated Axin2 protein is determined in a Luminex^200 machine (Luminex Corporation) according to the manufacturer's instruction by counting 100 events per well. Inhibition of Tankyrase by test compounds results in higher levels of Axin2 which directly correlates with an increase of detectable fluorescence. As controls cells are treated with solvent alone (neutral control) and with a Tankyrase reference inhibitor IWR-2 (3E-06 M) which refers as control for maximum increase of Axin2. For analysis, the obtained data are normalized against the untreated solvent control and fitted for determination of the EC50 values using the Assay Explorer software (Accelrys)."}, "[2]": {"molecular_target": "T1, GST-tagged Tnks-2 (873-1166 aa) (Homo sapiens, UniProt Q9H2K2)", "T1 construct": "GST-tagged Tnks-2 (873-1166 aa, prepared in-house); made in house", "T1 sequence (Q9H2K2 873-1166)": "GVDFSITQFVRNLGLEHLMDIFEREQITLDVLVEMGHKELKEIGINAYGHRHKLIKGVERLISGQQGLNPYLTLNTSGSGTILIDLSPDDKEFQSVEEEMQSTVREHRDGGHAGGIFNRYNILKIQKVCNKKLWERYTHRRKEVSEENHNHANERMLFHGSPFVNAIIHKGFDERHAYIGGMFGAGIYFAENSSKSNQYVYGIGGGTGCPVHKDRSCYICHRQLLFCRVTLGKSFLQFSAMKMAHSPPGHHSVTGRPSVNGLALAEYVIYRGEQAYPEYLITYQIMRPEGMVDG", "experiment": "TNKS2 activity ELISA (autoparsylation assay)", "format": "biochemical", "experimental": "Description of the TNKS1 and TNKS2 ELISA Assay\nBiochemical Activity Testing of TNKS 1 and 2: Activity ELISA (Autoparsylation Assay)\nFor analysis of autoparsylation activity of TNKS 1 and 2 an activity ELISA is performed: In the first step GST tagged TNKS is captured on a Glutathione coated plate. Then the activity assay with biotinylated NAD is performed in the absence/presence of the compounds. During the enzymatic reaction GST tagged TNKS transfers biotinylated ADP-ribose to itself from biotinylated NAD as co-substrate. For the detection streptavidin-HRP conjugate is added that binds to the biotinylated TNKS and is thereby captured to the plates. The amount of biotinylated resp. autoparsylated TNKS is detected with a luminescence substrate for HRP. The level of the luminescence signal correlats directly with the amount of autoparsylated TNKS and therefore with activity of TNKS.\nThe activity ELISA is performed in 384 well Glutathione coated microtiter plates (Express capture Glutathione coated plate, Biocat, Heidelberg, Germany). The plates are pre-equilibrated with PBS. Then the plates are incubated with 50 μl 20 ng/well GST-tagged Tnks-1 (1023-1327 aa, prepared in-house), respectively GST-tagged Tnks-2 (873-1166 aa, prepared in-house) in assay buffer (50 mM HEPES, 4 mM Mg-chloride, 0.05% Pluronic F-68, 2 mM DTT, pH 7.7) overnight at 4° C. The plates are washed 3 times with PBS-Tween-20. The wells are blocked by incubation at room temperature for 20 minutes with 50 μl blocking buffer (PBS, 0.05% Tween-20, 0.5% BSA). Afterwards the plates are washed 3 times with PBS-Tween-20. The enzymatic reaction is performed in 50 μl reaction solution (50 mM HEPES, 4 mM Mg-chloride, 0.05% Pluronic F-68, 1.4 mM DTT, 0.5% DMSO, pH 7.7) with 10 μM bio-NAD (Biolog, Life science Inst., Bremen, Germany) as co-substrate in the absence or presence of the test compound (10 dilution concentrations) for 1 hour at 30° C. The reaction is stopped by 3 times washing with PBS-Tween-20. For the detection 50 μl of 20 ng/μl Streptavidin, HRP conjugate (MoBiTec, Göttingen, Germany) in PBS/0.05%Tween-20/0.01%BSA are added and the plates are incubated for 30 minutes at room temperature. After three times washing with PBS-Tween-20 50 μl of SuperSignal ELISA Femto Maximum sensitivity substrate solution (ThermoFisherScientific (Pierce), Bonn, Germany) are added. Following a 1 minute incubation at room temperature luminescence signals are measured with an Envision multimode reader (Perkin Elmer LAS Germany GmbH) at 700 nm. The full value used is the inhibitor-free reaction. The pharmacological zero value used is XAV-939 (Tocris) in a final concentration of 5 μM. The inhibitory values (IC50) are determined using either the program Symyx Assay Explorer® or Condosseo® from GeneData."}, "[3]": {"molecular_target": "T2, GST-tagged Tankyrase-2 (873-1166 aa) (Homo sapiens, UniProt Q9H2K2)", "T2 construct": "GST-tagged Tankyrase-2 (873-1166 aa)", "T2 sequence (Q9H2K2 873-1166)": "as above", "experiment": "Tankyrase 2 autoparsylation assay (HTRF enzyme assay)", "format": "biochemical", "experimental": "Biochemical Activity Testing of Tankyrase 1 and 2: Autoparsylation Assay\nThe autoparsylation assay is run in two steps: the enzymatic reaction in which GST-tagged Tankyrase-1, resp Tankyrase-2 transferred biotinylated ADP-ribose to itself from biotinylated NAD as co-substrate and the detection reaction where a time resolved FRET between cryptate labelled anti-GST bound to the GST tag of the enzyme and Xlent® labelled-streptavidin bound the biotin-parsylation residue is analysed. The autoparsylation activity was detectable directly via the increase in HTRF signal.\nThe autoparsylation assay is performed as 384-well HTRF® (Cisbio, Codolet, France) assay format in Greiner low volume nb 384-well microtiter plates and is used for high throughput screen. 250 nM GST-tagged Tankyrase-1 (1023-1327 aa), respectively about 250 nM GST-tagged Tankyrase-2 (873-1166 aa) and 5 μM bio-NAD (Biolog, Life science Inst., Bremen, Germany) as co-substrate are incubated in a total volume of 5 μl (50 mM HEPES, 4 mM Mg-chloride, 0.05% Pluronic F-68, 1.4 mM DTT, 0.5% DMSO, pH 7.7) in the absence or presence of the test compound (10 dilution concentrations) for 90 min at 30° C. The reaction is stopped by the addition of 1 μl 50 mM EDTA solution. 2 μl of the detection solution (1.6 μM SA-Xlent® (Cisbio, Codolet, France), 7.4 nM Anti-GST-K® (Eu-labelled anti-GST, Cisbio, Codolet, France) in 50 mM HEPES, 800 mM KF, 0.1% BSA, 20 mM EDTA, 0.1% CHAPS, pH 7.0) are added. After 1 h incubation at room temperature the HTRF is measured with an Envision multimode reader (Perkin Elmer LAS Germany GmbH) at excitation wavelength 340 nm (laser mode) and emission wavelengths 615 nm and 665 nm. The ratio of the emission signals is determined. The full value used is the inhibitor-free reaction. The pharmacological zero value used is XAV-939 (Tocris) in a final concentration of 5 μM. The inhibitory values (IC50) are determined using either the program Symyx Assay Explorer® or Condosseo® from GeneData."}},
  "data": [
    {"smiles": "CC(C)(O)c1ccc(-c2nn3cccc3c(=O)[nH]2)cc1", "note": "[Compound A5, 2-[4-(1-hydroxy-1-methyl-ethyl)-phenyl]-3H-pyrrolo[2,1-f][1,2,4]triazin-4-one]", "values": [
      {"measurement": "EC50", "setting": "[1]", "result": "300 to 3000", "unit": "nM"},
      {"measurement": "IC50", "setting": "[2]", "result": "< 300", "unit": "nM"},
      {"measurement": "IC50", "setting": "[3]", "result": "< 300", "unit": "nM"}
    ]},
    {"smiles": "Cn1cc(-c2ccc(-c3nn4cccc4c(=O)[nH]3)cc2)cn1", "note": "[Compound A7, 2-[4-(1-methyl-1H-pyrazol-4-yl)-phenyl]-3H-pyrrolo[2,1-f][1,2,4]triazin-4-one]", "values": [
      {"measurement": "EC50", "setting": "[1]", "result": "300 to 3000", "unit": "nM"},
      {"measurement": "IC50", "setting": "[2]", "result": "< 300", "unit": "nM"},
      {"measurement": "IC50", "setting": "[3]", "result": "300 to 3000", "unit": "nM"}
    ]},
    {"smiles": "Cc1cc2c(=O)[nH]c(-c3ccc(C(C)(C)O)cc3)nn2c1", "note": "[Compound A11, 2-[4-(1-hydroxy-1-methyl-ethyl)phenyl]-6-methyl-3H-pyrrolo[2,1-f][1,2,4]triazin-4-one]", "values": [
      {"measurement": "EC50", "setting": "[1]", "result": "300 to 3000", "unit": "nM"},
      {"measurement": "IC50", "setting": "[2]", "result": "< 300", "unit": "nM"},
      {"measurement": "IC50", "setting": "[3]", "result": "< 300", "unit": "nM"}
    ]},
    {"smiles": "CC(C)(O)c1ccc(-c2nn3cc(F)cc3c(=O)[nH]2)cc1", "note": "[Compound A12, 6-fluoro-2-[4-(1-hydroxy-1-methyl-ethyl)phenyl]-3H-pyrrolo[2,1-f][1,2,4]triazin-4-one]", "values": [
      {"measurement": "EC50", "setting": "[1]", "result": "300 to 3000", "unit": "nM"},
      {"measurement": "IC50", "setting": "[2]", "result": "< 300", "unit": "nM"},
      {"measurement": "IC50", "setting": "[3]", "result": "< 300", "unit": "nM"}
    ]},
    {"smiles": "Cc1cc2c(=O)[nH]c(-c3ccc(-c4cnn(C)c4)cc3)nn2c1", "note": "[Compound A13, 6-methyl-2-[4-(1-methylpyrazol-4-yl)phenyl]-3H-pyrrolo-[2,1-f][1,2,4]triazin-4-one]", "values": [
      {"measurement": "EC50", "setting": "[1]", "result": "300 to 3000", "unit": "nM"},
      {"measurement": "IC50", "setting": "[2]", "result": "< 300", "unit": "nM"},
      {"measurement": "IC50", "setting": "[3]", "result": "< 300", "unit": "nM"}
    ]},
    {"smiles": "CCC(O)(CC)c1ccc(-c2nn3cccc3c(=O)[nH]2)cc1", "note": "[Compound A14, 2-[4-(1-ethyl-1-hydroxy-propyl)-phenyl]-3H-pyrrolo[2,1-f][1,2,4]triazin-4-one]", "values": [
      {"measurement": "EC50", "setting": "[1]", "result": "< 300", "unit": "nM"},
      {"measurement": "IC50", "setting": "[2]", "result": "< 300", "unit": "nM"},
      {"measurement": "IC50", "setting": "[3]", "result": "< 300", "unit": "nM"}
    ]},
    {"smiles": "CC(C)(OCCO)c1ccc(-c2nn3cccc3c(=O)[nH]2)cc1", "note": "[Compound A15, 2-{4-[1-(2-hydroxy-ethoxy)-1-methyl-ethyl]-phenyl}-3H-pyrrolo[2,1-f][1,2,4]triazin-4-one]", "values": [
      {"measurement": "EC50", "setting": "[1]", "result": "300 to 3000", "unit": "nM"},
      {"measurement": "IC50", "setting": "[2]", "result": "< 300", "unit": "nM"},
      {"measurement": "IC50", "setting": "[3]", "result": "< 300", "unit": "nM"}
    ]},
    {"smiles": "CC(C)(O)c1ccc(-c2nn3cc(Cl)cc3c(=O)[nH]2)cc1", "note": "[Compound A18, 6-chloro-2-[4-(1-hydroxy-1-methyl-ethyl)-phenyl]-3H-pyrrolo[2,1-f][1,2,4]triazin-4-one]", "values": [
      {"measurement": "EC50", "setting": "[1]", "result": "300 to 3000", "unit": "nM"},
      {"measurement": "IC50", "setting": "[2]", "result": "< 300", "unit": "nM"},
      {"measurement": "IC50", "setting": "[3]", "result": "< 300", "unit": "nM"}
    ]},
    {"smiles": "O=c1[nH]c(-c2ccc(C3(O)CCCC3)cc2)nn2cccc12", "note": "[Compound A21, 2-[4-(1-hydroxy-cyclopentyl)-phenyl]-3H-pyrrolo[2,1-f][1,2,4]-triazin-4-one]", "values": [
      {"measurement": "EC50", "setting": "[1]", "result": "300 to 3000", "unit": "nM"},
      {"measurement": "IC50", "setting": "[2]", "result": "< 300", "unit": "nM"},
      {"measurement": "IC50", "setting": "[3]", "result": "< 300", "unit": "nM"}
    ]}
  ]
}
